This is an account of results in patent US20060142374A1, “Crystal for oral solid drug and oral solid drug for dysuria treatment containing the same” (KISSEI PHARMACEUTICAL CO., LTD., priority 2002, published 2006).

Holding throughout (type): physicochemical
Data set [1] in a line: Stability test (appearance by naked eye, purity by liquid chromatography after storage). Conditions: for Stability in respect of purity and appearance: summary of storage conditions 1-4. The method, then:
Appearance and purity of each crystal obtained in Examples 1-3 and an amorphous obtained by freeze-drying a solution of KMD-3213 in dioxane were determined after allowing to stand under following conditions. As for appearance, it was determined by color and properties with the naked eye. Purity was determined by integral percentage method with liquid chromatography.
Condition 1: Allowing to stand at 40° C. in the constant temperature device for 28 days
Condition 2: Allowing to stand at 60° C. in the constant temperature device for 28 days
Condition 3: Allowing to stand at 80° C. in the constant temperature device for 25 days
Condition 4: Allowing to stand at 40° C. and relative humidity 75% in the constant temperature device for 28 days
The Liquid Chromatography Condition:
Detector: ultraviolet absorption spectrophotometer (wave length: 225 nm)
Column: Intertsil ODS-3 (GL Science, 5 μm, 4.6 mm×25 cm)
Column temperature: about 25° C.
Mobile Phase: To 3.9 g of sodium dihydrogen phosphate was added 2.5 mL of diluted phosphoric acid solution (1→20) accurately, and water was added to make 1000 mL of a solution accurately. A 5:2 mixed solution of the resulting solution and acetonitrile.

A short description of data set [2]: Moisture absorption test (weight change after storage). Conditions: for Moisture absorption (hygroscopicity): summary, compared with the amorphous. As to the method:
In the same manner as that of Test Example 1, the crystals obtained in Examples 1-3 and the amorphous were used for the test. Approximately 1 g of test substance was weighed accurately and put it into a sample vial. After the test substance was allowed to stand in an opening constant temperature and humidity device under following condition, their differences of weights were measured.
Condition 1: Allowing to stand at 25° C. and 60% of relative humidity in the constant temperature and humidity device for 3 days
Condition 2: Allowing to stand at 40° C. and 75% of relative humidity in the constant temperature and humidity device for 3 days

A short description of data set [3]: Stability to light on preservation. The note with it: content of active ingredient decreases depending on preserved condition with time.
The mark [4] stands for this setting: Condition 1: 40° C. for 28 days.
The mark [5] stands for this setting: Condition 2: 60° C. for 28 days.
The mark [6] stands for this setting: Condition 3: 80° C. for 25 days.
Where [7] appears, read: Condition 4: 40° C. and relative humidity 75% for 28 days.
Where [8] appears, read: Initial, liquid chromatography, integral percentage method.
Setting [9] is: Condition 1: 25° C. and 60% relative humidity for 3 days.
The mark [10] stands for this setting: Condition 2: 40° C. and 75% relative humidity for 3 days.

Turning to `C[C@H](Cc1cc2c(c(C(N)=O)c1)N(CCCO)CC2)NCCOc1ccccc1OCC(F)(F)F` [γ, KMD-3213], the Appearance result in data set [1] (setting [4]), in data set [1] (setting [5]), in data set [1] (setting [6]), in data set [1] (setting [7]) and in data set [1] (Initial) was “Pale yellow powder” each time. Further, the “Purity (%)” value in data set [1] (setting [4]) was determined as 99.85%; in data set [1] (setting [5]), 99.84%; in data set [1] (setting [6]), 99.64%; in data set [1] (setting [7]), 99.85%; in data set [1] (setting [8]), 99.88%. Besides, the “Change(%) of weight” value in data set [2] (setting [9]) was 0.00%; in data set [2] (setting [10]) it was −0.19%. Further, the “Moisture absorption (hygroscopicity)” value in data set [2] was “absorbing moisture scarcely”.

Regarding `C[C@H](Cc1cc2c(c(C(N)=O)c1)N(CCCO)CC2)NCCOc1ccccc1OCC(F)(F)F` [α, KMD-3213], the Appearance entry in data set [1] (setting [4]) is given as “White powder”; in data set [1] (setting [5]), “White powder”; in data set [1] (setting [6]), “Pale yellow”; in data set [1] (setting [7]), “White powder”; in data set [1] (Initial), “White powder”. Moreover, the “Purity (%)” value in data set [1] (setting [4]) is on record as 99.84%; in data set [1] (setting [5]), 99.84%; in data set [1] (setting [6]), 99.58%; in data set [1] (setting [7]), 99.85%; in data set [1] (setting [8]), 99.90%. The “Stability in respect of purity and appearance” value in data set [1] (listed as crystal form a) is listed as “extremely stable”; in data set [1] (listed as crystal form α) it was “the most stable”. Moreover, the “Change(%) of weight” value in data set [2] (setting [9]) was −0.01%; in data set [2] (setting [10]) it was −0.20%. Besides, in data set [2], the “Moisture absorption (hygroscopicity)” value is reported as “absorbing moisture scarcely”.

Regarding `C[C@H](Cc1cc2c(c(C(N)=O)c1)N(CCCO)CC2)NCCOc1ccccc1OCC(F)(F)F` [β, KMD-3213], the Appearance result in data set [1] (setting [4]) is on record as “Pale yellow powder”; in data set [1] (setting [5]) it was “Pale yellowish”; in data set [1] (setting [6]) it was “Pale brown powder”; in data set [1] (setting [7]), “Pale yellow powder”; in data set [1] (Initial), “Pale yellow powder”. Moreover, the “Purity (%)” value in data set [1] (setting [4]) worked out at 99.73%; in data set [1] (setting [5]), 99.57%; in data set [1] (setting [6]) it was 98.42%; in data set [1] (setting [7]), 99.69%; in data set [1] (setting [8]), 99.83%. Also, the “Change(%) of weight” value in data set [2] (setting [9]) is “+0.07%”; in data set [2] (setting [10]), −0.08%. Further, in data set [2], the “Moisture absorption (hygroscopicity)” value is on record as “absorbing moisture scarcely”.

As to `C[C@H](Cc1cc2c(c(C(N)=O)c1)N(CCCO)CC2)NCCOc1ccccc1OCC(F)(F)F` [amorphous, KMD-3213], the Appearance entry was “White powder” in data set [1] (setting [4]); “Pale yellow” in data set [1] (setting [5]); “Pale yellowish” in data set [1] (setting [6]); “White powder” in data set [1] (setting [7]); “White powder” in data set [1] (Initial). Also, the “Purity (%)” value amounted to 99.66% in data set [1] (setting [4]); 99.56% in data set [1] (setting [5]); 99.53% in data set [1] (setting [6]); 99.71% in data set [1] (setting [7]); 99.79% in data set [1] (setting [8]). The entries for the “Change(%) of weight” value in data set [2] (setting [9]) and in data set [2] (setting [10]) were “+1.61%” and “+1.31%”, respectively.

Take `C[C@H](Cc1cc2c(c(C(N)=O)c1)N(CCCO)CC2)NCCOc1ccccc1OCC(F)(F)F` [KMD-3213]: the Stability for light entry in data set [3] is “unstable for light relatively”.
